Key:
[1] = compared with nitroxoline; in words; cited from earlier work
[2] = Saturated solubility of the main drug in different media; assay type: physicochemical; details: for solubility at 72 h: thermodynamic from solid, 37° C.
Method: The solubility of the main drug (5-nitro-8-hydroxyquinoline L-lysinate monohydrate) is greatly affected by pH. In order to select a suitable dissolution medium to achieve the sink condition, the saturated solubility of the main drug in water, pH 1.0 hydrochloric acid solution, pH 4.0 buffer (solution A: water was added to 21 g of citric acid or 19.2 g of anhydrous citric acid to obtain a 1000 mL solution, which was then stored in a refrigerator; solution B: water was added to 71.63 g of disodium hydrogen phosphate to obtain a 1000 mL solution; 61.45 mL of solution A and 38.55 mL of solution B were mixed and shaked well to obtain the pH 4.0 buffer) and pH 6.8 PBS buffer (118 mL of 0.2 mol/L sodium hydroxide solution was added to 250 mL of 0.2 mol/L phosphoric acid solution, the resulting solution was diluted with water to 1000 mL and shaked well to obtain the pH 6.8 PBS buffer) were investigated. The specific method: excessive main drug (about 1.5 g) was added to 10 mL of the above four media, respectively; the resulting mixture was placed in a SHA-B multifunctional water bath constant temperature shaker (manufacturer: Zenith Lab (Jiangsu) Co., Ltd.) at water bath temperature of 37° C. and shaked at a speed of 280 rpm for 72 hours; the solution was filtered through a 0.45 μm nitrocellulose membrane (manufacturer: Tianjin Jinteng Experimental Equipment Co., Ltd.); and the filtrate was measured with a UV-2700 ultraviolet-visible spectrophotometer (manufacturer: Shimadzu, Japan), detection wavelength: 369 nm.

| Whether the sink condition was achieved ([2]; Water) | solubility at 72 h ([2]; aqueous buffer, pH 6.8 PBS buffer) | Whether the sink condition was achieved ([2]; pH 1.0 hydrochloric acid solution) | Whether the sink condition was achieved ([2]; pH 4.0 buffer) | solubility at 72 h ([2]; pH 4.0 buffer (citric acid / disodium hydrogen phosphate), aqueous buffer, pH 4.0 buffer) | Whether the sink condition was achieved ([2]; pH 6.8 PBS buffer) | solubility at 72 h ([2]; simulated gastric fluid, pH 1.0 hydrochloric acid solution) | solubility at 72 h ([2]; Water) | SMILES | water solubility [1] |
| --- | --- | --- | --- | --- | --- | --- | --- | --- | --- |
| – | – | – | – | – | – | – | – | O=[N+]([O-])c1ccc(O)c2ncccc12 [nitroxoline lysinate] | better than that of nitroxoline |
| Yes | 15700 µg/mL | Yes | No | 430 µg/mL | Yes | 1540 µg/mL | 100000 µg/mL | O=[N+]([O-])c1ccc(O)c2ncccc12 [main drug, 5-nitro-8-hydroxyquinoline L-lysinate monohydrate] | – |

— US12653818B2, “Pharmaceutical compositions comprising nitroxoline lysinate, preparation method therefor and use thereof” (Jiangsu Yahong Meditech Co., Ltd., priority 2020, dated 2026)
